The values below come from article PMC11355573, “A New Renieramycin T Right-Half Analog as a Small Molecule Degrader of STAT3” (Marine Drugs, 2024).

In assay [1] the test system is NSCLC cells (H292 and H460). The experiment in a line: Hoechst 33342/PI staining, percentage of dead cells in NSCLC. Format: cell-based, human. As to conditions: 10 μM, 24 h. How it is done: Apoptosis is a crucial mechanism of cell death induced by anticancer drugs. We further analyzed the apoptosis induction effect of the potent small molecules, namely DH_28, DH_30, and DH_31. Nuclear morphology detected by the staining with nucleus-specific fluorescence dye Hoechst 33342 and cell-impermeable PI for necrotic detection was performed. Morphologic changes by means of condensed and/or fragmented nuclei were observed after 24 h of treatment (Figure 2D). […] Therefore, DH_31 was selected for further experiments.
Figure 2 The effect of RT right-half analogs on cytotoxicity in NSCLC and human normal lung epithelial (BEAS-2B) cell lines and apoptotic cell death in NSCLC cells. (A) NSCLC H292 and H460 cells were treated with derivatives of RT right-half analogs for 24 h and analyzed using MTT assay to assess cytotoxicity. (B) IC50 values for H292 and H460 cell lines were calculated. (C) BEAS-2B cells were treated with DH_28, DH_30, DH_31, and TM-(−)-18 for 24 h. The cytotoxic effects were evaluated using an MTT assay, and the IC50 values for BEAS-2B cells were determined. (D) H292 and H460 cells were seeded and treated with 0–10 μM of DH_28, DH_30, and DH_31 for 24 h. Hoechst 33342 and PI were used to stain the cell nuclei. Images were obtained under a fluorescence microscope. (E) The percentages of cell death were calculated based on the stained images in H292 and H460 cells. […]

The subject of assay [2] is EMT markers (ZO1, Slug, Snail, N-cadherin, Vimentin) in H460 cells. The experiment in a line: Western blot of EMT markers. Format: cell-based, human. An excerpt:
EMT is a biological process that is associated with cancer progression and the spread of cancer cells to other parts of the body. This mechanism facilitates the motility of cancer cells, enhances anoikis resistance, and contributes to poor prognosis due to its high metastatic potential. Given the critical role of EMT in the metastasis processes, we firstly investigated EMT markers. Therefore, to validate that DH_31 inhibits metastasis, H460 cells were selected to elucidate the mechanism because of their enhanced migration and invasion behavior [36]. H460 cells were exposed to the non-toxic concentration range of 0–2.5 µM of DH_31 for 24 h. Subsequently, the evaluation of EMT expression levels was carried out through the application of immunofluorescence assay and Western blotting. We further investigated key hallmarks of EMT, specifically the reduction in the expression levels of epithelial marker (ZO1) and the increase in the expression levels of mesenchymal markers (Slug, Snail, ZEB1, N-cadherin, and Vimentin). […] The expressions of Snail, N-cadherin, and Vimentin were reduced in a concentration-dependent manner. […] Furthermore, the results from the Western blot analysis confirmed the findings from immunofluorescence staining (Figure 3C). […] The protein alterations in response to DH_31 were clarified.
Western blot analysis was performed to detect and quantify specific proteins in a sample. H460 cells (4.0 × 10^5 cells per well) were seeded in 6 well plates. Following overnight incubation, the cells were treated with different concentrations of DH_31 (0–2.5 μM) for 24 h at 37 °C. After treatment, the cell lysates were isolated using a 1 × RIPA buffer containing a protease inhibitor cocktail for 45 min at 4 °C. The protein content was determined using the BCA protein assay kit. For the Western blot assay, an equal amount of the denatured proteins from cell lysates was separated by electrophoresis on 10 or 12% SDS-PAGE and transferred to 0.2 µm polyvinylidene difluoride (PVDF) membranes (Bio-Rad Laboratories, Hercules, CA, USA). After the membranes were blocked with 5% skim milk, they were then incubated overnight with specific primary antibodies at 4 °C. Subsequently, the membranes were incubated with HRP-conjugated secondary antibodies for 1 h at room temperature. Protein bands were visualized using SuperSignal^TM West Pico PLUS Chemiluminescent Substrate. The protein intensity was analyzed using ImageJ™ software (Image J 1.52a, Rasband, W., National Institutes of Health, Bethesda, MD, USA).

Take `COc1c(C)cc2c(c1O)[C@@H]1CN(Cc3ccc4ccccc4c3)[C@@H](C#N)[C@H](C2)N1C` [DH_31, (1R,4R,5S)-10-hydroxy-9-methoxy-8,11-dimethyl-3-(naphthalen-2-ylmethyl)-1,2,3,4,5,6-hexahydro-1,5-epiminobenzo[d]azocine-4-carbonitrile]: the “dead cells in NSCLC” value in assay [1] is 34–66%. In assay [2] (H460, 1 µM (p < 0.05) and 2.5 µM (p < 0.01), 24 h), the “Snail expression (Western blot)” value is given as “reduced”. Further, in assay [2] (H460, 2.5 µM, 24 h (p < 0.05)), the “N-cadherin expression (Western blot)” value was “reductions”, the “Slug expression (Western blot)” value is recorded as “reductions” and the “Vimentin expression (Western blot)” value is listed as “reductions”.
